Entries after “also recorded” stand apart in the source; their conditions may differ.

Data set [1] deals with hypoxia-induced model of pulmonary hypertension in Dahl SS rats. Description: Hemodynamic study (pressures, RV/LV weights) in hypoxia/SU5416 model of pulmonary hypertension. Type of data set: in vivo, rat. The conditions noted are these: for development of pulmonary hypertension (right ventricular and pulmonary artery pressures, right ventricle/left ventricular weights): hypoxia 10% FiO2, 3 weeks, SU5416 20 mg/kg once, sorafenib by gavage daily. The protocol:
As part of the spectrum of sorafenib's pharmacologic activity overlaps with SU5416, a study was performed to determine whether sorafenib had similar effects or with additional mechanisms of inhibitory activity could counteract the effects of SU5416. Dahl Salt Sensitive rats were divided into 5 groups: normoxia+vehicle (normal, healthy control), hypoxia+SU5416 (positive control), hypoxia+sorafenib (safety comparison with SU5416), and hypoxia+sorafenib+SU5416 (therapeutic activity assessment). Echocardiograms were performed on all rats at the start of the study. Except for the normoxia group, all rats were maintained in a hypoxia chamber with a partial pressure of oxygen of 10% FiO2 for the duration of the study. Rats in the two SU5416 groups received one subcutaneous injection of SU5416 at the start of the study (20 mg/kg). Stock sorafenib solutions were prepared every three days, crushing and dissolving sorafenib tablets in EL/ethanol (50:50; Sigma Cremophor EL, 95% ethyl alcohol) at final concentration of 4 mg/mL, protected from light exposure and stored at room temperature. Final dosing solutions were prepared on the day of use by dilution of the stock solution to 1 mg/mL with water and administered by gavage to the rats daily. […] Organ and blood specimens were obtained for further evaluation. […] RV 3DE measurements were also determined (diameters+area), A=RV major diameter, B=RV annulus diastolic diameter & area, C=RV at ⅓ RV major diameter & area, D=RV at ⅔ RV major diameter & area.
Protocol includes an initial administration of SU5416 subcutaneously at 20 mg/kg followed daily by sorenfenib oral daily doses of 2.5 mg/kg. Some animals were exposed to chronic hypoxia (10% O2). The animals were divided into five experimental groups: hypoxia+sorafenib; hypoxia+SU5416+sorafenib, normoxia+vehicle control; Hypoxia+vehicle; and hypoxia+SU5416. PAP, RVSP, Echo, and DNA microarrays were used to measure various physiological and molecular biological parameters. FIG. 4 illustrates that hypoxia/SU5416-induces increases in right heart pressures and right heart hypertrophy (RV/LV+Septum).
Fifteen Dahl Salt Sensitive strain rats were divided into 5 groups: normoxia+vehicle (normal, healthy control), hypoxia+vehicle (hypoxia control), hypoxia+SU5416 (positive control), hypoxia+sorafenib (safety comparison with SU5416), and hypoxia+sorafenib+SU5416 (therapeutic activity assessment). Echocardiograms were performed on all rats at the start of the experiment. Except for the normoxia group, all rats were maintained in a hypoxia chamber with a partial pressure of oxygen of 10% FiO2 for the duration of the experiment. Rats in the 2 SU5416 groups received one subcutaneous injection of SU5416 at the start of the experiment (20 mg/kg). Stock sorafenib solutions were prepared every three days, crushing and dissolving sorafenib tablets in EL/ethanol (50:50; Sigma Cremophor EL, 95% ethyl alcohol) at final concentration of 4 mg/mL, protected from light exposure and stored at room temperature. Final dosing solutions were prepared on the day of use by dilution of the stock solution to 1 mg/mL with water and administered by gavage to the rats daily. […] Organ and blood specimens were obtained for further evaluation.

A short description of data set [2]: Body weight of rats in hypoxia/SU5416 study. Type of data set: in vivo, rat. The conditions noted are these: Dahl SS rats. The protocol:
Fifteen Dahl Salt Sensitive strain rats were divided into 5 groups: normoxia+vehicle (normal, healthy control), hypoxia+vehicle (hypoxia control), hypoxia+SU5416 (positive control), hypoxia+sorafenib (safety comparison with SU5416), and hypoxia+sorafenib+SU5416 (therapeutic activity assessment). Echocardiograms were performed on all rats at the start of the experiment. Except for the normoxia group, all rats were maintained in a hypoxia chamber with a partial pressure of oxygen of 10% FiO2 for the duration of the experiment. Rats in the 2 SU5416 groups received one subcutaneous injection of SU5416 at the start of the experiment (20 mg/kg). Stock sorafenib solutions were prepared every three days, crushing and dissolving sorafenib tablets in EL/ethanol (50:50; Sigma Cremophor EL, 95% ethyl alcohol) at final concentration of 4 mg/mL, protected from light exposure and stored at room temperature. Final dosing solutions were prepared on the day of use by dilution of the stock solution to 1 mg/mL with water and administered by gavage to the rats daily. After 3 weeks, all rats had echocardiography and hemodynamic studies. Organ and blood specimens were obtained for further evaluation.

Where [3] appears, read: 3½ Wk hypoxia (10% FiO2), sorafenib daily 2.5 mg/Kg, SU5416 day zero 20 mg/kg, 2 experiments as one cohort.

Consider `CNC(=O)c1cc(Oc2ccc(NC(=O)Nc3ccc(Cl)c(C(F)(F)F)c3)cc2)ccn1` [Sorafenib], for which, in data set [1] (setting [3]), the “BP mmHg (+/−) SE” value is on record as 97 +/− 4 mmHg. In addition, the “PA mmHg (+/−) SE” value in data set [1] (setting [3]) is reported as 18 +/− 2 mmHg. Moreover, the “RVSP mmHg (+/−) SE” value in data set [1] (setting [3]) is listed as 17 +/− 2 mmHg. In addition, the “development of pulmonary hypertension (right ventricular and pulmonary artery pressures, right ventricle/left ventricular weights)” value in data set [1] was “attenuated physiologic and histopathologic changes in PAH; also recorded: protect SU5416-treated hypoxia-exposed rats from pulmonary arterial hypertension”; in data set [1] (listed as sorafenib) it was “prevents hypoxia+SU5416 induced pulmonary hypertension and remodeling; also recorded: no significant change in pressures or weights; also recorded: does not exacerbate hypoxia-induced hypertension”; in data set [1] (listed as sorefenib) it was “did not develop evidence of PAH”. Further, the “right heart hypertrophy (RV/LV+Septum)” value in data set [1] (hypoxia+SU5416, sorafenib oral daily 2.5 mg/kg) is on record as “prevented hypoxia+SU5416 development of right heart hypertrophy”. Moreover, the “Wt” value came out at 331 ± 15 g in data set [2] (POST (after 3 weeks hypoxia)) and 328 ± 10 g in data set [2] (PRE (baseline at start of experiment)).

These data come from patent US20090197922A1, “COMPOSITIONS AND METHODS FOR TREATING PULMONARY HYPERTENSION” (The University of Chicago, priority 2006, published 2009).
